From the PolyMetriX glass transition set
± gives the standard deviation of the reports.

SMILES	glass transition temperature [°C]
*CC(COC(C)C)O* (repeat unit)	-67.00
*CCN(*)C (repeat unit)	-31.00
*Nc1cc(NC(=O)c2cc(NC(=O)C(C(C)CC)N3C(=O)c4ccccc4C3=O)cc(C(*)=O)c2)ccc1C (repeat unit)	166.00
*[Si](*)(CCCC)CCCCC (repeat unit)	-26.00
*/C=C/c1cc(OCCCCCCCCCCCCCCCC)c(/C=C/c2ccc(*)cc2)cc1OCCCCCCCCCCCCCCCC (repeat unit)	33.00
*CCOCCOC(=O)CCC(=O)O* (repeat unit)	-38.20
*CC(*)(C)C(=O)OCC=C (repeat unit)	94.00
*CCCCCOC(=O)c1cccc(C(=O)O*)c1 (repeat unit)	7.00
*CCN(CCOC(=O)Nc1ccc(C)c(NC(=O)O*)c1)c1ccc(/N=N/c2ccc(-c3nc4ccccc4o3)cc2)cc1 (repeat unit)	152.00
*C(=O)Nc1ccc(Oc2ccc(C3(c4ccc(Oc5ccc(NC(=O)c6ccc7c(c6)C(=O)N(c6ccc(Oc8ccc(N9C(=O)c%10ccc(*)cc%10C9=O)cc8)cc6)C7=O)cc5)cc4)NC(=O)c4ccccc43)cc2)cc1 (repeat unit)	320.00
*NNC(=O)c1ccc(C(*)=O)cc1OCCCCCCCCCC (repeat unit)	193.00
*c1[nH]c2ccccc2c1* (repeat unit)	137.00
*C(=O)Nc1cccc(S(=O)(=O)c2cccc(NC(=O)c3ccc4c(c3)C(=O)N(c3cc(-c5nnc(-c6ccccn6)o5)cc(N5C(=O)c6ccc(*)cc6C5=O)c3)C4=O)c2)c1 (repeat unit)	173.00
*CCC1CC(*)C2C3CC(CC)C(C3)C12 (repeat unit)	138.00
*OP(=O)(Oc1ccc(-c2ccc(*)cc2)cc1)OC1CCCCC1 (repeat unit)	116.00
*CCOCO* (repeat unit)	-64.00

SMILES	glass transition temperature [°C]
*[O][Sn]([CH2]CCC)([CH2]CCC)[O]C(=O)CCCCC(*)=O (repeat unit)	110.00
*C(=O)OCCCCCCCCCCCCCCCCCCCCCCOC(=O)c1ccc(N2C(=O)c3ccc(*)cc3C2=O)cc1 (repeat unit)	44.00
*C#Cc1cccc(C#C[Si](*)(C)C)c1 (repeat unit)	50.00
*Oc1c(C)cc(*)cc1C(C)CCCC (repeat unit)	85.00
*c1ccc(Oc2ccccc2Oc2ccc(N3C(=O)c4ccc(S(=O)(=O)c5ccc6c(c5)C(=O)N(*)C6=O)cc4C3=O)cc2C(F)(F)F)c(C(F)(F)F)c1 (repeat unit)	255.00
*C1(C)CC(*)(C)C(=O)N(C)C1=O (repeat unit)	170.00
*c1ccc(-c2ccc(N(*)c3ccc(CCCC)cc3)cc2)cc1 (repeat unit)	180.00
*CC(C)(C)O* (repeat unit)	40.50
*c1ccc(Oc2ccc(S(=O)(=O)c3ccc(Oc4ccc(N5C(=O)c6ccc(Oc7cccc8c(Oc9ccc%10c(c9)C(=O)N(*)C%10=O)cccc78)cc6C5=O)cc4)cc3)cc2)cc1 (repeat unit)	201.00
*CC(*)OC(=O)c1ccc(OC)cc1 (repeat unit)	86.50
*CCCCCCN1C(=O)C(=O)N(c2ccc(CCc3ccccc3N3C(=O)C(=O)N(*)C3=O)cc2)C1=O (repeat unit)	137.00
*CCCCCCCCCOC(=O)C(O)C(O)C(=O)O* (repeat unit)	-11.00
*CC(*)C(=O)OCC(CC)CCCC (repeat unit) [Poly(2-ethylhexyl acrylate)]	-57.08 ± 7
*N(C)[Si](*)(C)C (repeat unit)	-20.00
*CCC(*)=O (repeat unit)	15.00

Further lines, results first:

glass transition temperature [°C]	SMILES
30.00	*Oc1ccc(CC(NC(=O)CCc2ccc(OC(=O)CCCCCCCCC(*)=O)cc2)C(=O)OCCCC)cc1 (repeat unit)
136.00	*/C(C#N)=C/c1cc(/C=C(\C#N)c2ccc3c(c2)C(CCCCCCCC)(CCCCCCCC)c2cc(*)ccc2-3)cc(N(c2ccccc2)c2ccccc2)c1 (repeat unit)
34.00	*CC(*)(C)C(=O)OCCCCCCCCOc1ccc2cc(C(=O)Oc3ccccc3)ccc2c1 (repeat unit)
155.00	*Oc1ccc(C(=O)NCC(C)(C)CCCNC(=O)c2ccc(*)cc2)cc1 (repeat unit)
264.00	*Oc1ccc(NC(=O)c2cccc(C(=O)Nc3ccc(*)cc3)c2)cc1 (repeat unit)
231.00	*Nc1ccc(-c2ccc(Nc3ccc4c(c3)c3cc(*)ccc3n4CC(CC)CCCC)cc2)cc1 (repeat unit)
128.00	*Oc1ccc(/N=C/c2ccc(Oc3ccc(C(c4ccc(Oc5ccc(/C=N/c6ccc(Oc7ccc(-c8ccc(*)cc8)cc7)cc6)cc5)cc4)(C(F)(F)F)C(F)(F)F)cc3)cc2)cc1 (repeat unit)
255.00	*c1ccc2oc(-c3ccc(Oc4ccc(C(c5ccc(Oc6ccc(-c7nc8cc(C(*)(C(F)(F)F)C(F)(F)F)ccc8o7)cc6)cc5)(C(F)(F)F)C(F)(F)F)cc4)cc3)nc2c1 (repeat unit)
143.00	*c1ccc(C(=O)Oc2ccc(C(C)(C)c3ccc(OC(=O)c4ccc(N5C(=O)CC(SCCOCCSC6CC(=O)N(*)C6=O)C5=O)cc4)cc3)cc2)cc1 (repeat unit)
39.00	*CNC(=O)OCc1ccc(COCc2ccc(COC(=O)NCc3ccc(C(C)(C)c4ccc(*)o4)o3)o2)o1 (repeat unit)
327.00	*c1ccc(OC(=O)c2ccc(C(=O)Oc3ccc(C4(*)NC(=O)c5ccccc54)cc3)cc2)cc1 (repeat unit)
73.00	*CC(*)(C)C(=O)NC(=O)OC(C)COc1ccc(S(=O)(=O)c2ccc(OCC(C)O)cc2)cc1 (repeat unit)
222.00	*c1ccc(Oc2ccc(C(=O)c3cccc(C(=O)c4ccc(Oc5ccc(N6C(=O)c7ccc(-c8ccc9c(c8)C(=O)N(*)C9=O)cc7C6=O)cc5)cc4)c3)cc2)cc1 (repeat unit)
91.00	*CCCCCC(=O)Oc1ccc(Oc2ccc(OC(=O)CCCCCn3c(=O)c4cc5c(=O)n(*)c(=O)c5cc4c3=O)cc2)cc1 (repeat unit)
257.00	*c1cccc(C(=O)Nc2ccc(Oc3ccc(C(C)(C)c4ccc(Oc5ccc(NC(=O)c6cccc(N7C(=O)c8ccc(-c9ccc%10c(c9)C(=O)N(*)C%10=O)cc8C7=O)c6)cc5)cc4)cc3)cc2)c1 (repeat unit)
305.00	*c1ccc(Oc2ccc(-c3cc(-c4ccccc4)c4cc(Oc5ccc6nc(*)c(-c7ccccc7)c(-c7ccccc7)c6c5)ccc4n3)cc2)cc1 (repeat unit)
44.00	*CCN(CCCCCCOc1ccc(/N=N/c2ccccc2)cc1)CCOC(=O)Nc1ccc(Cc2ccc(NC(=O)O*)cc2)cc1 (repeat unit)
92.00	*c1cccc(S(=O)(=O)NCCCNS(*)(=O)=O)c1 (repeat unit)

glass transition temperature [°C]	SMILES
160.00	*Oc1ccc(NC(=O)CCCCCCCCC(=O)Nc2ccc(*)cc2)cc1 (repeat unit)
45.00	*CC(*)(CC(=O)OCCc1ccccc1)C(=O)OCCc1ccccc1 (repeat unit)
182.00	*C(=O)c1ccc2c(c1)C(=O)N(c1cc(OCCCCCCCCCCCC)cc(N3C(=O)c4ccc(*)cc4C3=O)c1)C2=O (repeat unit)
250.00	*c1ccccc1C(=O)Oc1ccc2c(*)c3ccc(=O)cc-3oc2c1 (repeat unit)
77.00	*CCCCCCCCCCCOC(=O)Nc1ccc(NC(=O)OCCCCCCCCCCCOc2ccc(-c3ccc(O*)cc3)cc2)c(C)c1 (repeat unit)
59.00	*CC(O)CN(CC(O)COc1ccc(C(C)(C)c2ccc(O*)cc2)cc1)c1ccc(/N=N/c2ccc([N+](=O)[O-])cc2)cc1 (repeat unit)
187.00	*c1cc(C(=O)OCCCCCC)cc(N2C(=O)CC(C3Cc4ccccc4C4C(=O)N(*)C(=O)C43)C2=O)c1 (repeat unit)
279.00	*Oc1ccc(NC(=O)Nc2cc(NC(=O)Nc3ccc(*)c(-c4ccc(Oc5ccccc5)cc4)c3)ccc2C)cc1-c1ccc(Oc2ccccc2)cc1 (repeat unit)
90.00	*Nc1cc(NC(=O)c2ccccc2C(*)=O)cc(-c2nnc(-c3ccccn3)o2)c1 (repeat unit)
-10.00	*C(F)(F)C(*)(F)OC(F)(F)C(F)(F)C(F)(F)C(F)(F)F (repeat unit)
188.00	*CCN(CCOC(=O)Nc1ccc(C)c(NC(=O)O*)c1)c1ccc(/N=N/c2ccc(-c3nc4cc([N+](=O)[O-])ccc4[nH]3)cc2)cc1 (repeat unit)
200.00	*/C(=C(/*)c1ccc(C(C)(C)C)cc1)c1ccccc1 (repeat unit)
230.00	*c1ccc2c(c1)C(=O)N(c1cccc(Oc3ccc(Oc4cccc(N5C(=O)c6ccc(C(*)(C(F)(F)F)C(F)(F)F)cc6C5=O)c4)cc3)c1)C2=O (repeat unit)
48.00	*CC(*)(C)C(=O)OCCCCCOc1ccc2cc(C(=O)Oc3ccccc3)ccc2c1 (repeat unit)
29.00	*CC(*)(C)C(=O)OCCCCCCCCCCOc1ccc(OC(=O)c2ccc(OC)c(Br)c2)cc1 (repeat unit)
232.00	*c1ccc(Oc2ccc(C(C)(c3ccccc3)c3ccc(Oc4ccc(-c5nc(-c6ccccn6)nnc5*)cc4)cc3)cc2)cc1 (repeat unit)
308.00	*C(=O)Nc1cccc(C(=O)c2cccc(NC(=O)c3ccc4c(c3)C(=O)N(c3ccc(-c5sc(-c6ccc(N7C(=O)c8ccc(*)cc8C7=O)cc6)c(-c6ccccc6)c5-c5ccccc5)cc3)C4=O)c2)c1 (repeat unit)
333.00	*C(=O)Nc1ccc(NC(=O)c2ccc3c(c2)C(=O)N(c2ccc(-c4sc(-c5ccc(N6C(=O)c7ccc(*)cc7C6=O)cc5)c(-c5ccccc5)c4-c4ccccc4)cc2)C3=O)cc1 (repeat unit)
